Series [1] deals with T1, OCT3 (Solute carrier family 22 member 3) (Rattus norvegicus, UniProt O88446).
T1 sequence (O88446 whole entry): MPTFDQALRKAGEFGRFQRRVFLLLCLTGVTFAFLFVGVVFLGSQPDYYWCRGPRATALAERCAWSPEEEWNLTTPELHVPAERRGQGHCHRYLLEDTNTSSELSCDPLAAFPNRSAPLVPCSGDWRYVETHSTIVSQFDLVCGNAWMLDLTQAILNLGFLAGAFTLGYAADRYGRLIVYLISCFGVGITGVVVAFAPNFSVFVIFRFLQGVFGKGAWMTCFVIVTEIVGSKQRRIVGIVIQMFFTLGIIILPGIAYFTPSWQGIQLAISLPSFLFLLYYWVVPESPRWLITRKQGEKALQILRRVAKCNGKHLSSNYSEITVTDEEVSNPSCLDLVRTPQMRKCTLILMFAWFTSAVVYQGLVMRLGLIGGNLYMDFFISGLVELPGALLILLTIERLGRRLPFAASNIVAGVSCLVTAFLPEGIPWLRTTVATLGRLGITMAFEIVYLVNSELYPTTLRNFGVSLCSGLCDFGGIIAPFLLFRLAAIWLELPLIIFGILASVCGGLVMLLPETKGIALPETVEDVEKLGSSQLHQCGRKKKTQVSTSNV
Description: TP_TRANSPORTER: inhibition of Guanidine uptake (Guanidine: 35 uM, MPTP: 5000 uM) in OCT3-expressing HeLa cells. The format is functional, cell-based. On the set-up: scale not given: the % may be the effect or the level left. The note with it: human, probe guanidine (35 uM), read-out: Activity.

Series [2] concerns the target T1, OCT3 (Solute carrier family 22 member 3). Description: TP_TRANSPORTER: inhibition of Guanidine uptake (Guanidine: 35 uM, MPP+: 5000 uM) in OCT3-expressing HeLa cells. Format: functional, cell-based. On the set-up: scale not given: the % may be the effect or the level left. The note with it: human, probe guanidine (35 uM), read-out: Activity.
For series [3] the target is unchanged. Description: TP_TRANSPORTER: inhibition of Guanidine uptake (Guanidine: 35 uM, Desipramine: 5000 uM) in OCT3-expressing HeLa cells. The format is functional, cell-based. More on the design: scale not given: the % may be the effect or the level left. The settings on record: human, probe guanidine (35 uM), read-out: Activity.
The target of series [4] is T2, Solute carrier family 22 member 3 (Rattus norvegicus, UniProt O88446).
T2 sequence (O88446 whole entry): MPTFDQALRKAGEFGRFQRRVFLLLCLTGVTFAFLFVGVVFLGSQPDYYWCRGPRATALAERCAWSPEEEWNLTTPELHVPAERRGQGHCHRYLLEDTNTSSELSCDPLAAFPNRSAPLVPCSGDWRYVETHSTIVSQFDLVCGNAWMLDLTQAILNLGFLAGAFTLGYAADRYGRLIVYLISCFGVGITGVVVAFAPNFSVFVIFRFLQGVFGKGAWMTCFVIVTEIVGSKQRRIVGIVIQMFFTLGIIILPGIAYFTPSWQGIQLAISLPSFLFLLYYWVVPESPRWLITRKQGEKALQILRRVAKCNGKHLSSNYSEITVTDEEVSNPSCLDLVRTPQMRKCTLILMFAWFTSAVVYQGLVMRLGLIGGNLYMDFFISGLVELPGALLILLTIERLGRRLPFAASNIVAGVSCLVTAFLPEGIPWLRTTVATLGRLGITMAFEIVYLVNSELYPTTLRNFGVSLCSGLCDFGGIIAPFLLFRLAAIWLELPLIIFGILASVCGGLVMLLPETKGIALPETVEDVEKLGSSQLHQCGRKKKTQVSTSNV
The series can be described thus: TP_TRANSPORTER: uptake in Xenopus laevis oocytes. The format is functional, cell-based. The note with it: oocyte.

Series [5] concerns the target T2, Solute carrier family 22 member 3. The series can be described thus: TP_TRANSPORTER: uptake in OCT3-expressing HeLa cells. The format is functional, cell-based. The note with it: human.
For series [6], the target named is T1, OCT3 (Solute carrier family 22 member 3). Description: in vitro. The settings on record: human, OCT3-expressing HeLa cells, probe guanidine (35 uM).
Series [7] shares this target. The series can be described thus: TP_TRANSPORTER: inhibition of Guanidine uptake (Guanidine: 35 uM, NMN: 5000 uM) in OCT3-expressing HeLa cells. On the set-up: scale not given: the % may be the effect or the level left. The settings on record: human, probe guanidine (35 uM), read-out: Activity. Format: functional, cell-based.
Series [8] has the same target. The series can be described thus: TP_TRANSPORTER: inhibition of Guanidine uptake (Guanidine: 35 uM, Serotonin: 5000 uM) in OCT3-expressing HeLa cells. On the set-up: scale not given: the % may be the effect or the level left. The note with it: human, probe guanidine (35 uM), read-out: Activity. Format: functional, cell-based.
Series [9] shares this target. Description: TP_TRANSPORTER: inhibition of Guanidine uptake (Guanidine: 35 uM, TMA: 5000 uM) in OCT3-expressing HeLa cells. The note with it: human, probe guanidine (35 uM), read-out: Activity. Format: functional, cell-based. On the set-up: scale not given: the % may be the effect or the level left.
Series [10] shares this target. Description: in vitro. The note with it: human, OCT3-expressing HeLa cells, probe guanidine (35 uM). This is another data set of the same source.
Substrate in series [11]: CC[N+](CC)(CC)CC
The series can be described thus: cells, lysate or membranes named.

Values joined by “and” are separate entries in the source; they are usually repeats but may differ in a detail not shown here. Equal entries are not always repeated.

As to `CN1CC=C(c2ccccc2)CC1`, the activity at 5000 µM in [1] amounted to 14%.

For the molecule `C[n+]1ccc(-c2ccccc2)cc1`, the activity at 5000 µM in series [2] came out at 22%.

In the case of `CNCCCN1c2ccccc2CCc2ccccc21` [DESIPRAMINE], the activity at 5000 µM in series [3] was 1%. With `N=C(N)N` [GUANIDINE], the Activity entry in series [4] and in [5] was “substrate [+]” each time.

Consider `CN1CCC[C@H]1c1cccnc1` [NICOTINE], for which the activity at 5000 µM in series [6] was 52%. Regarding `CNC(=O)c1cccnc1` [NICOTINYL METHYLAMIDE], the activity at 5000 µM in series [7] stood at 33%. For the molecule `NCCc1c[nH]c2ccc(O)cc12` [SEROTONIN], the activity at 5000 µM in series [8] was found to be 30%. For the molecule `C[N+](C)(C)C` [TETRAMETHYLAMMONIUM], the activity at 5000 µM in series [9] was 59%. `CC[N+](CC)(CC)CC` [TETRYLAMMONIUM]: the activity at 5000 µM in [10] turned out to be 41%.

B1: Solute carrier family 22 member 3 (Rattus norvegicus) (protein)
chain: MPTFDQALRKAGEFGRFQRRVFLLLCLTGVTFAFLFVGVVFLGSQPDYYWCRGPRATALAERCAWSPEEEWNLTTPELHVPAERRGQGHCHRYLLEDTNTSSELSCDPLAAFPNRSAPLVPCSGDWRYVETHSTIVSQFDLVCGNAWMLDLTQAILNLGFLAGAFTLGYAADRYGRLIVYLISCFGVGITGVVVAFAPNFSVFVIFRFLQGVFGKGAWMTCFVIVTEIVGSKQRRIVGIVIQMFFTLGIIILPGIAYFTPSWQGIQLAISLPSFLFLLYYWVVPESPRWLITRKQGEKALQILRRVAKCNGKHLSSNYSEITVTDEEVSNPSCLDLVRTPQMRKCTLILMFAWFTSAVVYQGLVMRLGLIGGNLYMDFFISGLVELPGALLILLTIERLGRRLPFAASNIVAGVSCLVTAFLPEGIPWLRTTVATLGRLGITMAFEIVYLVNSELYPTTLRNFGVSLCSGLCDFGGIIAPFLLFRLAAIWLELPLIIFGILASVCGGLVMLLPETKGIALPETVEDVEKLGSSQLHQCGRKKKTQVSTSNV
What is called Km is the concentration of substrate that gives half-maximal velocity. As for B1, the Km in series [11] was 2.5 mM and 6.2 mM.

Values taken from ChEMBL document CHEMBL2074228, “Cloning and functional characterization of a potential-sensitive, polyspecific organic cation transporter (OCT3) most abundantly expressed in placenta” (J Biol Chem, 1998).
